The test system of one test is Penicillium chrysogenum. As to conditions: low concentrations, malt extract agar, 25° C., 144 hours.
A further test deals with Rhizopus. The settings on record: 1000 ppm, lab trial.
The test system of another test is Aspergillus parasiticus. The settings on record: for growth: all concentrations, malt extract agar, 25° C., 144 hours.
A further test deals with Stachybotrys. As to conditions: 1000 ppm, lab trial.
The subject of test [1] is Stachybotrys chartarum. As to conditions: for growth during incubation period: 144 hour incubation, all concentrations; for growth: all concentrations (400 to 2000 ppm), malt extract agar, 25° C.
The next test deals with three different fungi. The settings on record: 2000 ppm, lab trial.
The test system of a further test is Rhizopus stolonifer. The settings on record: for growth during incubation period: 144 hour incubation.
For another test, the system named is Aspergillus flavus. The settings on record: for growth: all concentrations, malt extract agar, 25° C., 144 hours.
Another test deals with Penicillium. The settings on record: lab trial.
The subject of test [2] is Stachybotrys chartarum.
Setting [3] is: 2000 ppm, d.f=2, p<0.05, unpaired one-tailed T-tests.

Like-named read-outs stand apart in the source and are kept apart here.

Description for Aspergillus flavus: (§1) For each fungus tests were conducted on malt extract agar that was amended with five concentrations of sucrose octanoate. The control medium was standard malt extract agar. The concentrations were prepared based on 100% active ingredient. The parts per million were calculated afterwards to account for a concentration of 40% active ingredient. All fungi in the tests were incubated at 25° C. for 144 hours.
(§2) For each fungi tests were conducted on malt extract agar that was amended with five concentrations of sorbitol octanoate. The control medium was standard malt extract agar. The concentrations were prepared based on 100% active ingredient. The parts per million were calculated afterwards to account for a concentration of 40% active ingredient. All fungi in the tests were incubated at 25° C. for 144 hours.
Description for Aspergillus parasiticus: as §1, §2
Description for Penicillium chrysogenum: as §1, §2
Description for Rhizopus stolonifer: as §1, §2

With sucrose octanoate, the growth entry was “able to grow, although slowly compared to the control” with Penicillium chrysogenum; “able to grow” in the test with Aspergillus parasiticus; “inhibited” with Stachybotrys chartarum [1]; “inhibited” in the test with Rhizopus stolonifer (all concentrations tested (400 to 2000 ppm), malt extract agar, 25° C.); “able to grow” in the test with Aspergillus flavus. Also, the growth of fungus entry is reported as “prevented the growth” with Rhizopus, “prevented the growth” in the test with Stachybotrys and “some growth” with Penicillium (1000 ppm). For the same substance, the “growth compared with control plates” value in the test with Aspergillus parasiticus (setting [3]) and in the test with Aspergillus flavus (setting [3]) was “significantly less” throughout. For the same substance, the “growth during incubation period” value is “No growth” with Stachybotrys chartarum [1], “no growth” with Rhizopus stolonifer (all concentrations tested) and “no growth” with Rhizopus stolonifer (all concentrations with the exception of 400 ppm level). In addition, the growth of fungi entry with three different fungi was “prevented the growth”.

For “Zinc Mono-Sucrose Succinate [Compound A]”, the “reduction of radial growth” value in the test on Rhizoctonia solani (1000 ppm) was 75.4%; in the test on Mucor sp (1000 ppm) it was 74.4%; with Pythium ultimum (1000 ppm), 92.3%; in the test with Fusarium graminearum (1000 ppm), 73%; in the test with Aspergillus niger (1000 ppm), 65.6%; in the test with Alternaria sp (1000 ppm), 64.9%. For the same substance, the “reduction of radial growth” value in the test on Stachybotrys chartarum [2] (1000 ppm) is listed as 66.0%. The radial growth diameter was 15.3 mm with Rhizoctonia solani (1000 ppm, control 62.3 mm); 17 mm in the test on Mucor sp (1000 ppm, control 66.5 mm); 6.6 mm in the test on Pythium ultimum (1000 ppm, control 85 mm); 18.3 mm in the test on Fusarium graminearum (1000 ppm, control 67.6 mm); 21.7 mm in the test with Aspergillus niger (1000 ppm, control medium 63.0 mm); 10 mm with Alternaria sp (1000 ppm, control 28.5 mm). Further, the radial growth diameter in the test with Stachybotrys chartarum [2] (1000 ppm, control medium 19.7 mm) stood at 6.7 mm. Moreover, the growth measurement with Rhizoctonia solani (5000 ppm, very limited growth) was 10 mm; in the test with Stachybotrys chartarum [2] (5000 ppm, very limited growth), 2.7 mm. Further, the growth entry in the test with Mucor sp (5000 ppm), with Pythium ultimum (5000 ppm), in the test on Aspergillus niger (5000 ppm) and with Alternaria sp (5000 ppm) was “no significant level of growth” each time. The inhibition result in the test with Fusarium graminearum (5000 ppm) is “no additional inhibition over the 1000-ppm assay”. For the same substance, the sporulation result in the test on Aspergillus niger (1000 ppm medium, also high on control medium) is “high”; in the test on Stachybotrys chartarum [2] (1000 ppm medium, high levels on control medium), “reduced to low levels”.

With sorbitol octanoate, the growth entry in the test with Penicillium chrysogenum is given as “able to grow, although slowly compared to the control”; with Aspergillus parasiticus it was “able to grow”; in the test with Stachybotrys chartarum [1] it was “inhibited”; in the test on Aspergillus flavus, “able to grow”. Further, the results for the growth of fungus result with Rhizopus, in the test with Stachybotrys and with Penicillium (2000 ppm) were “prevented the growth”, “prevented the growth” and “some growth”, respectively. Also, the “growth during incubation period” value in the test on Stachybotrys chartarum [1] is recorded as “No growth”.

The record behind these values is patent US20050272692A1, “Sucrose ester compounds useful as fungicides” (priority 2004, published 2005).
